Experimental findings from article PMC11249646, “Small-Molecule Disruptors of the Interaction between Calcium- and Integrin-Binding Protein 1 and Integrin αIIbβ3 as Novel Antiplatelet Agents” (ACS Pharmacology & Translational Science, 2024) are described below.

The structures appear in SMILES notation. pIC50: −log10 of the molar value. Read-outs that look alike come from different tables or passages of the source. Where a SMILES comes first, the peptide text is derived from it. The star is where a group is joined. Cbz = O=C(OCc1ccccc1)*; CH2Cl = ClC*

The target of the assay is T1, CIB1 and αIIb interaction (CIB1-GST : F-αIIb peptide) (Homo sapiens, UniProt Q99828).
T1 construct: made in house; host or cells: BL-21 plus RIL cells (E. coli)
T1 sequence (Q99828 1-191): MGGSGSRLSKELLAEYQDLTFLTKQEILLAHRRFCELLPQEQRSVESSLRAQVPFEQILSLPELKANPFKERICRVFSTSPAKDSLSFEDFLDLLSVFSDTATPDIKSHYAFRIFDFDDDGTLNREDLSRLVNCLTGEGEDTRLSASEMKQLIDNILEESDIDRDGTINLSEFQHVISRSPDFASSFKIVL
The assay can be described thus: FP assay, 1536-well qHTS format (primary and confirmatory screen). In kind it is binding. The conditions noted are these: for Efficacy (%): negative = inhibition; for Curve Class: negative sign = inhibitory curve; for pIC50: read-out: IC50.

The mark [1] stands for this setting: qHTS primary screen hits, Table S2.
Setting [2] is: qHTS primary screen hits, Table S2, several classes where COUNT > 1.
Setting [3] is: qHTS primary screen of LOPAC/NPACT libraries.

The pIC50 is the IC50 on a negative log10 scale, so that one unit is a factor of ten. With `Fc1cc(Nc2nc(-c3ccncc3)nc3ccccc23)ccc1N1CCNCC1.O=C(O)C(F)(F)F` [NCGC00345204-01], under setting [1], the “Efficacy (%)” value was -36% and the pIC50 is 4.05. Besides, under setting [2], the “Curve Class” value is -2.4.

On to `C=C(C)C(=O)OC1CC2(C)OC(=CC2=O)C(=C)CC2OC(=O)C(=C)C12` (stereo not shown) [NCGC00381113-01], for which, under setting [3], the “Efficacy (%)” value was -22%, the “Curve Class” value is reported as -1.4 and the pIC50 was 5.05.

On to `C=C1C(=O)O[C@H]2[C@H]1[C@@H](OC(=O)C(C)CO)C[C@@]1(C)[C@H](O)CCC(=O)[C@H]21` (stereo partly shown) [NCGC00169369-02], for which, under setting [3], the “Efficacy (%)” value is listed as -20%, the “Curve Class” value was -1.4 and the pIC50 was 4.65.

As to `Cc1cc(-c2cc(O)ccc2Cl)cc2nnc(Nc3ccc(OCCN4CCCC4)cc3)nc12.Cl` [NCGC00378690-01], under setting [3], the “Efficacy (%)” value is -25%, the “Curve Class” value is reported as -2.4 and the negative-log IC50 (pIC50) is 4.25.

Regarding `COc1cc(NS(=O)(=O)c2ccc([N+](=O)[O-])cc2)c2ncccc2c1` [NCGC00161705-01], under setting [1], the “Efficacy (%)” value was -40% and the pIC50 is 4.25. Also, the “Curve Class” value under setting [2] was -2.4.

On to `CCCc1c(O)c(O)c(C(=O)O)c2cc(Cc3ccccc3)c(C)cc12` [NCGC00249596-02], for which, under setting [1], the “Efficacy (%)” value was -48% and the pIC50 was 4.35. In addition, under setting [2], the “Curve Class” value was -2.2.

In the case of `CCCCCCC/C=C\CCCCCCCCC(=O)O` [NCGC00015764-04], under setting [3], the “Efficacy (%)” value is -27%, the “Curve Class” value was -2.4 and the pIC50 was 4.50.

As for `Cc1cc(C)nc(NC(=S)N2CCN(c3cccc4ccncc34)CC2)c1.O=C(O)C(F)(F)F` [NCGC00244146-01], under setting [1], the “Efficacy (%)” value is on record as -30%, the “Curve Class” value was -2.4 and the pIC50 was 4.10.

Regarding `COc1ccnc2c1CCCCC2[S+]([O-])c1nc2ccccc2[nH]1` (stereo not shown) [NCGC00253591-01], under setting [1], the “Efficacy (%)” value was -30% and the pIC50 is 4.25. Besides, the “Curve Class” value under setting [2] was -2.2.

For the compound `Cl.Cl.O=C(O)c1cn(-c2ccc(F)cc2)c2cc(N3CCNCC3)c(F)cc2c1=O` [NCGC00177995-02], under setting [1], the “Efficacy (%)” value is -41% and the negative logarithm of the IC50 (pIC50) was 4.40. Further, the “Curve Class” value under setting [2] is reported as -3.

As to `COc1cccc2c1C(=O)c1c(O)c3c(c(O)c1C2=O)C[C@@](O)(C(C)=O)C[C@@H]3O[C@H]1C[C@H](N)[C@H](O)[C@H](C)O1` [NCGC00024246-15], under setting [1], the “Efficacy (%)” value was -61% and the pIC50 was 4.82.

`Cl.O=c1c2ccccc2nc2sc(Nc3cccc(N4CCNCC4)c3)nn12` [NCGC00187809-01]: under setting [1], the “Efficacy (%)” value was -32% and the pIC50 was 4.35. Also, the “Curve Class” value under setting [2] was -2.4.

Consider `CNC(=O)c1ccccc1Nc1cc(Nc2ccc(N3CCOCC3)cc2OC)ncc1C(F)(F)F` [NCGC00378620-04], for which, under setting [3], the “Efficacy (%)” value is -24%, the “Curve Class” value is given as -1.4 and the negative logarithm of the IC50 (pIC50) is 5.20.

As to `COCCCOc1ccnc(C[S+]([O-])c2nc3ccccc3[n-]2)c1C.[Na+]` (stereo not shown) [NCGC00159518-05], under setting [1], the “Efficacy (%)” value is recorded as -54% and the pIC50 was 4.37.

In the case of `CN1CCN(c2ccc(NC(=O)CN(C)Cc3c(O)ccc4ccccc34)cc2)CC1.O=C(O)C(F)(F)F` [NCGC00229739-01], under setting [1], the “Efficacy (%)” value is reported as -49% and the pIC50 was 4.05. Further, under setting [2], the “Curve Class” value is on record as -3.

`CCCN1C[C@H](CSC)C[C@@H]2c3cccc4[nH]cc(c34)C[C@H]21` [NCGC00017366-05]: under setting [3], the “Efficacy (%)” value was -29%, the “Curve Class” value was -2.2 and the pIC50 was 4.30.

For `COc1cccc2c1C(=O)c1c(O)c3c(c(O)c1C2=O)C[C@@](O)(C(=O)CO)CC3OC1CC(N2CCOC(OC)C2)C(O)C(C)O1` (stereo partly shown) [NCGC00319019-01], under setting [1], the “Efficacy (%)” value is listed as -40%, the “Curve Class” value is -1.4 and the pIC50 is 5.00.

Regarding `COc1ccc2c(c1)C(=O)N(CCc1ccc(S(=O)(=O)NC(=O)NC3CCCCC3)cc1)C(=O)C2(C)C` [NCGC00016819-06], under setting [3], the “Efficacy (%)” value is -31%, the “Curve Class” value is listed as -2.4 and the pIC50 is 4.35.

For `NS(=O)(=O)c1ccc(NCc2cn(-c3nc(C(=O)O)cs3)nc2-c2ccccc2)cc1.O=C(O)C(F)(F)F` [NCGC00357525-01], under setting [1], the “Efficacy (%)” value is -25% and the pIC50 was 4.25. Also, under setting [2], the “Curve Class” value is reported as -2.4.

Turning to `Cc1cc2nc3c(=O)[nH]c(=O)nc-3n(C[C@H](O)[C@H](O)[C@H](O)CO)c2cc1C` [NCGC00091288-05], under setting [1], the “Efficacy (%)” value is -134% and the negative-log IC50 (pIC50) is 5.40.

For the compound `O=C(Nc1ccc2ccccc2c1)Nc1nnc(-c2ccccn2)s1.O=C(O)C(F)(F)F` [NCGC00188528-01], under setting [1], the “Efficacy (%)” value was -30% and the pIC50 was 4.25. Besides, the “Curve Class” value under setting [2] is on record as -2.4.

With `Cc1sc2c(c1C)C(c1ccc(Cl)cc1)=N[C@@H](CC(=O)Nc1ccc(OCCOCCOCCOCCNc3cccc4c3C(=O)N(C3CCC(=O)NC3=O)C4=O)cc1)c1nnc(C)n1-2` (stereo partly shown) [NCGC00483927-01], under setting [3], the “Efficacy (%)” value was -26%, the “Curve Class” value is reported as -2.4 and the pIC50 is 4.65.

As to `CNC[C@H](O)c1ccc(O)c(O)c1` [NCGC00015417-04], under setting [1], the “Efficacy (%)” value was -32%, the “Curve Class” value is given as -2.4 and the negative logarithm of the IC50 (pIC50) is 4.15.

With `CCCC(C(=O)OCCN(CC)CC)(c1ccccc1)c1ccccc1.Cl` [NCGC00015799-04], under setting [3], the “Efficacy (%)” value was -14%, the “Curve Class” value was -2.4 and the pIC50 is 4.25.

In the case of `COc1ccnc(C[S+]([O-])c2nc3cc(OC(F)F)ccc3[nH]2)c1OC` (stereo not shown) [NCGC00388526-02], under setting [3], the “Efficacy (%)” value is listed as -26%, the “Curve Class” value was -2.4 and the pIC50 is 4.25.

As to `C=C1C(=O)O[C@@H]2[C@H]1[C@H](O)C[C@]1(C)[C@@H](O)CC=C(C)[C@@H]21` [NCGC00180848-02], under setting [3], the “Efficacy (%)” value is given as -29%, the “Curve Class” value is -2.4 and the pIC50 was 4.70.

On to `CN(C)CCCNC(=O)c1ccc(-c2cc(O)c3ncccc3c2)cc1` [NCGC00183808-07], for which, under setting [1], the “Efficacy (%)” value is -38% and the pIC50 is 4.52.

In the case of `COC1=C(OC)C(=O)C(CCCCCCCCCCO)=C(C)C1=O` [NCGC00160514-02], under setting [1], the “Efficacy (%)” value was -26% and the pIC50 was 4.30. Also, the “Curve Class” value under setting [2] is on record as -2.4.

As for `CC(C)=CCc1ccc(Oc2c(O)cc(C)cc2CO)c(C(=O)O)c1O` [NCGC00169025-02], under setting [3], the “Efficacy (%)” value is reported as -26%, the “Curve Class” value is given as -2.4 and the negative logarithm of the IC50 (pIC50) is 4.35.

With `CCCCCCCCCCCCCCCC[n+]1ccccc1.[Br-]` [NCGC00091023-06], under setting [1], the “Efficacy (%)” value was -31% and the pIC50 is 4.05. Also, under setting [2], the “Curve Class” value is -2.4.

Consider `CC(=O)Nc1sc2c(c1-c1nc3ccccc3s1)CCN(C(C)C)C2` [NCGC00183664-03], for which, under setting [1], the “Efficacy (%)” value is -54% and the negative logarithm of the IC50 (pIC50) is 4.30. Moreover, under setting [2], the “Curve Class” value is on record as -2.2.

For the compound `CC(=O)O.Cc1ccc(OCCn2c(CCNC(=O)c3ccc(N)cc3)nc3ccccc32)cc1` [NCGC00241723-01], under setting [1], the “Efficacy (%)” value is reported as -31%, the “Curve Class” value is recorded as -1.4 and the negative logarithm of the IC50 (pIC50) is 4.35.

Take `CN(N=O)c1ccc(O)c(O)c1` [NCGC00015706-04]: under setting [1], the “Efficacy (%)” value is listed as -66% and the pIC50 is 4.25. Also, under setting [2], the “Curve Class” value was -2.4.

A word on the IC50: it is the point on the concentration scale where inhibition reaches its midpoint. High values mean weaker potency in that assay, low ones greater potency in that assay. In turn, `S=P(N1CC1)(N1CC1)N1CC1` [NCGC00095042-06] gave an IC50 (IC50 [μM]) of 126 µM. For the same compound, under setting [1], the “Efficacy (%)” value is given as -44% and the “Curve Class” value is on record as -2.2.

Regarding `CN1CCN(c2nc3cc(C(F)(F)F)ccc3n3cccc23)CC1.O=C(O)/C=C\C(=O)O` [NCGC00015180-05], under setting [1], the “Efficacy (%)” value was -17% and the pIC50 is 4.35. Besides, under setting [2], the “Curve Class” value is on record as -2.2.

Regarding `Cc1ccc(S(=O)(=O)Nc2cnccc2C(=O)Nc2cccc3ccccc23)cc1.O=C(O)C(F)(F)F` [NCGC00343900-01], under setting [1], the “Efficacy (%)” value was -32%, the “Curve Class” value is given as -2.4 and the pIC50 was 4.30.

For the compound `CCc1nnc(Nc2ncnc3scc(-c4cccc(S(C)(=O)=O)c4)c23)s1.O=C(O)C(F)(F)F` [NCGC00188733-01], under setting [1], the “Efficacy (%)” value is reported as -31% and the pIC50 is 4.30. For the same compound, the “Curve Class” value under setting [2] is -2.2.

For `Cc1c2c(=O)n(-c3ccccc3)[nH]c2cc(=O)n1Cc1ccco1.O=C(O)C(F)(F)F` [NCGC00248469-01], under setting [1], the “Efficacy (%)” value is listed as -43% and the negative-log IC50 (pIC50) was 4.25. The “Curve Class” value under setting [2] is listed as -2.4.

Regarding `CC(C)C[C@H](NC(=O)CNC(=O)OCc1ccccc1)C(=O)N[C@@H](Cc1ccccc1)C(=O)CCl` [NCGC00485375-01] (Cbz-Gly-Leu-Phe-CH2Cl), under setting [3], the “Efficacy (%)” value was -24%, the “Curve Class” value was -2.4 and the negative logarithm of the IC50 (pIC50) was 4.65.

With `CN1CCN(CCCN2c3ccccc3Sc3ccc(C(F)(F)F)cc32)CC1.Cl.Cl` [NCGC00261917-01], under setting [3], the “Efficacy (%)” value is -35% and the “Curve Class” value is listed as -2.4.

As for `N#C/C(=C1\Nc2ccccc2S1)c1ccnc(NCCc2cccnc2)n1` [NCGC00387772-02], under setting [3], the “Efficacy (%)” value is given as -26%, the “Curve Class” value is given as -1.4 and the pIC50 is 5.25.
